The values below come from patent publication EP0642504B1 (priority 1991, dated 1993).

Structures are written as SMILES. Marks after values point to notes of the source that are not given here.

Assay [1] has as its system Arachidonic Acid-Induced Paw Edema. Briefly: Arachidonic acid-induced paw edema (water displacement). It is filed as in vivo, CD-1 female mice. The conditions noted are these: oral, 30 min after arachidonic acid (1.0 mg s.c.), vs vehicle treated controls. The method, then:
The induction of paw edema in rodents by injection of arachidonic acid has been used as an experimental model for inflammation [Calhoun, W., et al., Agents and Actions, 21, 306 (1987)]. Prior administration of non-steroidal anti-inflammatory drugs (NSAIDs) in many cases leads to a dose related inhibition of the edematous response which may be considered a predictor of clinical efficacy.
(§1) The conditions were based on those reported previously [Calhoun et al., ibid.]. […] PAF (1.0 µg) or arachidonic acid (1.0 mg) dissolved in 50 µl of 5% ethanol in saline, were injected s.c. into the plantar surface of the right hind paw of CD-1 female mice (20-25 g) obtained from Charles River Labs. The mice were under ether anesthesia during this procedure. The volume of the right foot was measured to the level of the lateral malleous by water displacement before treatment and 15 min after PAF injection or 30 min after archidonate injection. The change in paw volume was calculated for each mouse and the significance for each group was determined by a paired t test analysis.

In the next assay the test system is PAF-Induced Paw Edema. The experiment in a line: PAF-induced paw edema (water displacement). The assay is classed as in vivo, CD-1 female mice. The conditions noted are these: oral, 15 min after PAF (1.0 µg s.c.), vs vehicle treated controls. The method, then: A second model, in which edema is induced by platelet activating factor (PAF), was used to evaluate activity.
as §1

Assay [2] has as its system picrotoxin induced lethality. The experiment in a line: Protection against picrotoxin induced lethality. It is filed as in vivo, Balb/c male mice. The conditions noted are these: drug 10 mg/kg, 120 min before picrotoxin (8 mg/kg) s.c.; no drug 0/17. The text has this: (§2) The present compounds are active in several tests generally used to indicate neuroprotection.
For assay [3], the system named is N-methyl-D-aspartate (NMDA) induced lethality. The experiment in a line: Protection against NMDA induced lethality. The conditions noted are these: 90 min before NMDA (125 mg/kg) s.c., no drug 0/20. The assay is classed as in vivo, Balb/c male mice.
Source text: as §2

Assay [4] relates to strychnine induced lethality. The experiment in a line: Protection against strychnine induced lethality. It is filed as in vivo. The conditions noted are these: rats.
Source text: as §2

The subject of assay [5] is forebrain ischemia (unilateral occlusion). The experiment in a line: Forebrain ischemia (unilateral occlusion). It is filed as in vivo. To be noted: mongolian gerbils.
Source text: as §2

Consider `CCCCCCC(C)(C)c1cc(OC(C)=O)c2c(c1)OC(C)(C)[C@H]1CC=C(C(=O)O)C[C@H]21` [HU-245, (3S,4S)-THC-DMH-7-oic acid, acetate], for which the “percent inhibition of paw edema” value in assay [1] (dose 0.050 mg.kg) was 35.7 (N.S.) percent; in assay [1] (dose 0.100 mg.kg), 50.1* percent; in assay [1] (dose 0.250 mg.kg) it was 48.2* percent; in assay [1] (dose 0.55 mg.kg), 42.2 (N.S.) percent; in the assay on PAF-Induced Paw Edema (dose 0.10 mg/kg), 37.3* percent; in the assay on PAF-Induced Paw Edema (dose 0.25 mg/kg), 66.9* percent. In addition, the “percent inhibition of paw edema” value in the assay on PAF-Induced Paw Edema (dose 0.5 mg/kg) is 72.0* percent. Also, the figures for the “Survival rate (number of survivors out of total number of animals used)” value in assay [2], in assay [3] (drug 2.5 mg/kg) and in assay [3] (drug 10 mg/kg) were 5/8, 6/12 and 8/10, respectively. In addition, in assay [4], the “protection against strychnine induced lethality” value is reported as “protects against strychnine induced lethality”. For the same compound, the “protection against forebrain ischemia” value in assay [5] is listed as “protect against forebrain ischemia”.
